{
  "source": "patent US6660864B2",
  "about": "“Polymorphic forms of 6-[4-(1-cyclohexyl-1H-tetrazol-5-yl)butoxy]-3,4-dihydro-2(1H)-quinolinone” (priority 2001, dated 2003)",
  "key": {"[1]": {"assay": "Bioavailability of cilostazol polymorphic form", "format": "in vivo", "details": "Form A as prepared by the procedures of the '479 patent"}, "[2]": {"assay": "Aqueous solubility of cilostazol polymorphic form", "format": "physicochemical", "details": "Form A as prepared by the procedures of the '479 patent"}, "[3]": {"assay": "DSC heating of disturbed/stressed sample: solid state phase transformation to Form A", "format": "physicochemical", "details": "sample disturbed (scratching/stressed), DSC from 30° C. to approximately 200° C. at 10° C. per minute", "text": "Characterization of Form A of cilostazol, Form B of cilostazol, and Form C of cilostazol was further completed using DSC thermograms, shown in FIGS. 3, 4, and 5, respectively, with DSC thermograms for combinations of Form A and Form B; Form B and Form C; and Forms A, B, and C are shown in FIGS. 6, 7, and 8 respectively. DSC data were generated using a Mettler-Toledo DSC 821^e (Columbus, Ohio) with a Julabo FT900 intercooler chiller (Julabo Company; Allentown, Pa.). In general, samples were analyzed in a vented, sealed aluminum pan. Because the endothermic peak may vary depending upon the rate of heating and the calibration and precision of the instrument, with the amount of peak variation dependent upon the heating rate used, all thermograms included herein were run under the same, consistent conditions: heating at 10° C. per minute under a nitrogen purge at 40 mL/minute. The resultant sample of Example 1A was disturbed with scratching, which caused the cilostazol sample to undergo a solid state phase transformation at approximately 119° C. followed by an endotherm of melt at approximately 160° C. (Form A) during heating by DSC from 30° C. to approximately 200° C. at 10° C. per minute. When the sample is stressed and reheated (as detailed in Example 2A), the sample undergoes a solid state phase transformation at approximately 147° C. followed by an endotherm of melt at about 160° C. […]"}, "[4]": {"assay": "Stability of the crystalline form", "format": "physicochemical"}, "[5]": {"assay": "Relative solubility suggested by DSC thermogram (lower melting point, crystal packing forces)", "format": "physicochemical", "details": "suggested by the lower melting point in DSC (FIG. 8)", "text": "Characterization of Form A of cilostazol, Form B of cilostazol, and Form C of cilostazol was further completed using DSC thermograms, shown in FIGS. 3, 4, and 5, respectively, with DSC thermograms for combinations of Form A and Form B; Form B and Form C; and Forms A, B, and C are shown in FIGS. 6, 7, and 8 respectively. DSC data were generated using a Mettler-Toledo DSC 821^e (Columbus, Ohio) with a Julabo FT900 intercooler chiller (Julabo Company; Allentown, Pa.). In general, samples were analyzed in a vented, sealed aluminum pan. Because the endothermic peak may vary depending upon the rate of heating and the calibration and precision of the instrument, with the amount of peak variation dependent upon the heating rate used, all thermograms included herein were run under the same, consistent conditions: heating at 10° C. per minute under a nitrogen purge at 40 mL/minute.\nFIG. 8 illustrates a DSC thermogram for the combination of Form A, Form B and Form C having a second heating cycle with a maximum temperature of about 110° C. with a holding time of about 30 minutes. The peaks in the third heating cycle show a Form A to Form B to Form C peak area ratio of approximately 8:2:1, respectively, with the relative amount of Form A, Form B and Form C further variable on the heat of enthalpy of each polymorphic form."}},
  "data": [
    {"compound": "O=C1CCc2cc(OCCCCc3nnnn3C3CCCCC3)ccc2N1", "note": "[Form A, 6-[4-(1-cyclohexyl-1H-tetrazol-5-yl)butoxy]-3,4-dihydro-2(1H)-quinolinone]", "values": [
      {"measurement": "bioavailability", "setting": "[1]", "result": "low bioavailability"},
      {"measurement": "aqueous solubility", "setting": "[2]", "result": "low aqueous solubility"}
    ]},
    {"compound": "O=C1CCc2cc(OCCCCc3nnnn3C3CCCCC3)ccc2N1", "note": "[Form B, 6-[4-(1-cyclohexyl-1H-tetrazol-5-yl)butoxy]-3,4-dihydro-2(1H)-quinolinone]", "values": [
      {"measurement": "solid state phase transformation temperature (to Form A)", "setting": "[3]; listed as Example 1A", "result": "approximately 119 °C"},
      {"measurement": "stability of the polymorphic form", "setting": "[4]", "result": "stable"},
      {"measurement": "solubility relative to Form A", "setting": "[5]", "result": "more soluble than Form A"}
    ]},
    {"compound": "O=C1CCc2cc(OCCCCc3nnnn3C3CCCCC3)ccc2N1", "note": "[Form C, 6-[4-(1-cyclohexyl-1H-tetrazol-5-yl)butoxy]-3,4-dihydro-2(1H)-quinolinone]", "values": [
      {"measurement": "solid state phase transformation temperature (to Form A)", "setting": "[3]; listed as Example 2A", "result": "approximately 147 °C"}
    ]}
  ]
}
